Key:
[1] = system: embryonic stem cells (ES) of mice; experiment: Embriotoxicity assay: cytotoxic effects on embryonic stem cells; type: cell-based; conditions: submicromolar concentrations, between 10^−6 and 10^−7 M; five days
Method: Bearing in mind that crotamine is a toxin, cytotoxic effects were tested on embryonic stem cells (ES) of mice which are non-differentiated cells, derived from the embryonic bud of blastocytes, and have as their main characteristic their pluripotence, an ability to differentiate to different types of tissues.
Such cells were chosen bearing in mind the usefulness of crotamine application for gene therapy (by means of stem cells) and transgenesis, as a carrier of other molecules to within cells. Four different concentrations were tested for five days. […] The assay was as follows.
Embryonic bodies (EBs) were obtained by the hanging drop method, as described above, using culture medium containing crotamine at various concentrations (100 μM to 0.1 μM), changing the medium every two to three days. To analyze the crotamine location in EBs under development, crotamine was substituted with crotamine linked to Cy3 (Cy3-crotamine) during the final 24 hours of incubation. Compact murine morulae (8-16 cells) were obtained from the oviduct and cultivated for 24 hours at 37° C. in 5% CO2, in individual microwells of V-bottom plates (Costar) with […] microwells in M16 medium (supplier: Sigma) and Cy3-crotamine (1-0.1 μM). After 24 hours of culture, normally developed blastocyst numbers were compared within the control and the experimental group.

plasmid DNA = experiment: Peptide-DNA interaction by circular dichroism; type: binding; conditions: molar ratio 200:1 and 1:1 (crotamine:DNA), absence and presence of 150 mM NaCl
Method: Circular dichroism spectra were taken in a spectropolarymeter JASCO 810 with a Peltier system for temperature control. The device is regularly calibrated with recrystallized d-10 camphorsulfonic acid. Standards used for the equipment were: wavelength range 190-260 nm; sensitivity 100 mdeg; resolution 0.5 nm; response 8 s; reading speed 50 nm/min; 8 accumulations; temperature 37° C. Samples were analysed in a 1 mm optical path cell in 10 mM sodium phosphate buffer, pH 7.4, in the presence or absence of 150 mM NaCl. The crotamine concentration used was 20 μM and plasmid DNA concentration was 0.1 μM. […]

[2] = system: actively proliferating cells; experiment: Marker for actively proliferating cells (BrDU co-labeling); type: cell-based, mice; conditions: FIG. 8E-H
Source text: The hanging drop method was used, with some amendments, to induce the differentiation of ES cells from USP-1 line (Wobus, A. M., Wallukat, G., Hescheler, J. (1991), Pluripotent Mouse Embryonic Cells are Able to Differentiate into Cardiomyocytes Expressing Chronotropic Responses to Adrenergic and Cholinergic Agents and Ca^2+ Channel Blockers, Differentiation 48, 173-182). Briefly, ES cell suspensions without fibroblasts were obtained, collected with 0.25% trypsin/EDTA (Gibco, U.S.A.). Said suspension was diluted up to 3.5×10^4 cells/ml and dropped by using a micropipette (25 μl per drop) on the Petri dish cap (10 cm). Drops adhered to the surface were turned upside down over the plate already containing 5 ml PBS. After three days in a CO2 oven, in the hanging drop culture in appropriate culture medium for ES, with no LIF, aggregates are formed, known as embryonic bodies (EBs). EBs were later transferred to another plate (35 mm) with a 1% agarose layer, and maintained in the CO2 oven at 37° C. On the fifth day, EBs were transferred to microscope slides, on another Petri dish, where they adhered and started differentiating into a monolayer.
Embryonic bodies, obtained according to the protocol as described above, after three days, adhered to small glass slides. […] Microscope slides were assembled in a PBS/glycerol solution (1:1) and analysed in a confocal microscope. […]

mice = conditions: injected intraperitoneally; cited from earlier work
chromosomes = experiment: Chromosome analysis; type: cell-based; conditions: 1 μM, compared with DAPI or 5-BrDU staining
Method: 1 μM crotamine conjugated to Cy3 was added to the culture of ES-USP1 cells, human lymphoblastoids and primary fibroblasts for 1, 3, 6 and 24 hours. Cells were collected and treated according to the routine cytogenetic protocol, with no addition of colchicine. Digital images were obtained with refrigerated CCD (PCO, VC44) and processed by using ISIS software (MetaSystem).

Sequence: YKQCHKKGGHCFPKEKICLPPSSDFGKMDCRWRWK CCKKGSG (YKQCHKKGGHCFPKEKICLPPSSDFGKMDCRWRWKCCKKGSG; UniProt Q9PWF3 23-64, looked up) [crotamine]
- cytotoxic effect on embryonic stem cells in culture [1]: does not present any cytotoxic effect
- interaction with plasmid DNA by circular dichroism spectra (plasmid DNA): presence of interaction
- co-location with BrDU staining in actively proliferating ES cells [2]: co-location
- time to paralysis of the hind legs (mice): less than 15 minutes
- binding to chromosomes (chromosomes): binds to chromosomes in the metaphase
